How the values were obtained:
[1] = system: conceptus membrane segments; assay: In vitro estradiol production by day 16 conceptus membrane segments (Example 7); type: cell-based, mares
Description: Treatment with melatonin at estrus results in greater in vitro estradiol biosynthetic capability of day 16 conceptus membrane segments given androgen precursors. […] The extra-embryonic membranes were dissected into 4×4 mm^2 segments and cultured in the presence or absence of supplemental testosterone. Conceptus membrane fragments were cultured for 24 hours and the culture medium analyzed for estradiol.
Results and conclusions. Following completion of culture, conceptus membrane segments were frozen and assayed for DNA content. All estradiol concentrations measured in culture media were then adjusted for the DNA content of the appropriate conceptus membrane segment.

hysterectomized mares = assay: Melatonin at estrus, morning v. afternoon, in hysterectomized mares: plasma progesterone (Example 5); type: in vivo
Description: Because hysterectomized mares are unable to generate a luteolytic secretion of prostaglandin F2α (PGF), luteal function and progesterone production continue longer than in uterine-intact mares.
The experiment was repeated in full using the same design with the exception that melatonin or control injections were administered in the afternoon rather than the morning. Blood samples were collected daily from day of treatment for 30 days post-ovulation.

ewes [2] = assay: Bolus melatonin at estrus in ewes: plasma progesterone (Example 12); type: in vivo; settings: 400 μg i.v., 2 to 3 doses at estrus; Day 5 to Day 15 post-estrus; vs saline
Description: A. Effect of bolus administration of melatonin on progesterone levels. The effect of bolus melatonin administration during estrus on plasma progesterone was determined. The duration of the estrous cycle was also measured. Estrous cycles of ten ewes were monitored by daily behavioral monitoring with a vasectomized ram. […] Blood samples were collected daily for an entire estrous cycle. Melatonin-treated ewes (n=5) were administered 400 μg melatonin i.v. in the early morning (07:30 to 08:30hr) and late afternoon (16:30 to 17:30hr). Five ewes were treated similarly, but were administered saline as control at the same times. Estrus duration was approximately 24 to 36 hr, thus ewes were administered 2 to 3 doses of melatonin to assure treatment during estrus. Progesterone levels were higher from Day 5 to Day 15 post-estrus in melatonin-treated ewes compared with saline-treated ewes. The increased progesterone concentrations following administration of melatonin, as compared to a saline control, is shown in FIG. 5B.

sheep = settings: subcutaneous, multiple daily administrations; cited from earlier work
pony mares = assay: Bolus melatonin at estrus: plasma E2, P4, LH and cycle length (Example 1A); type: in vivo
Description: A. Effect of bolus administration of melatonin on estradiol, progesterone, and luteinizing hormone levels. The effect of bolus melatonin administration during estrus on plasma estradiol (E2), progesterone (P4), and luteinizing hormone (LH) was determined. The interval from treatment to ovulation (OV1) and duration of the subsequent estrous cycle, ending at OV2, were also measured. Estrous cycles of eight pony mares were synchronized. Ovarian follicular activity was monitored daily, and sexual behavior was monitored with a stallion. Blood samples were collected daily. Upon detection of behavioral estrus and a 30 mm diameter follicle, mares were assigned to either a control group or melatonin group. Blood samples were collected for 8 hours (09:00 to 17:00) at 30 minute intervals. Melatonin-group mares were given an injection of 100 μg melatonin in 1 ml of sterile saline into the jugular vein, while control-group mares received 1 ml sterile saline.

[3] = system: human and bovine granulosa cells; settings: in vitro; cited from earlier work
cows = assay: Melatonin in cows: plasma progesterone (FIG. 5A); type: in vivo; settings: vs saline control, initial results
From the text: FIGS. 5A and 5B show the effect on plasma progesterone (P4) concentration (ng/ml), compared to a saline control, following administration of melatonin to cows and ewes in accordance with the subject invention.

cyclic pony mares [4] = assay: Melatonin at proestrus: plasma melatonin (RIA), E2, P4, LH (Example 2); settings: 100 μg at proestrus
Description: Treatments were administered at 09:59:45 at proestrus only. Test animals were divided into two groups: control (1.0 ml 0.9% saline, n=3), and melatonin (100 μg melatonin in 1.0 ml 0.9% saline, n=3). Ovarian follicular activity was monitored daily by rectal palpation and/or ultrasonography. Blood samples were collected every 10 minutes for a period of 8 hours at proestrus, estrus, and diestrus. Plasma melatonin concentrations were measured by radioimmunoassay (RIA) to determine the effect of control and melatonin treatments administered at proestrus.

corpus luteum = assay: Corpus luteum biopsy morphology after melatonin at estrus (Example 9); type: in vivo, mares; settings: light and electron microscopy
From the text: Following collection of conceptuses as described in Examples 7 and 8, mares were taken to surgery and the corpus luteum biopsied. Biopsies were taken from each mare, control and melatonin-treated, for both light and electron microscopy.

cyclic pony mares [5] = assay: Melatonin at proestrus or estrus: plasma hormones in the subsequent cycle (Example 3); type: in vivo
Description: Blood samples were collected every 30 minutes and were collected daily through the next subsequent estrus and ovulation.

accessory corpora lutea = assay: Multiple melatonin administrations: accessory corpora lutea progesterone (Example 6); type: in vivo, mares; settings: treatment just prior to formation of accessory corpora lutea (day 35-45 of pregnancy)
From the text: Mares are unique in that they develop and ovulate a new cohort of follicles around day 35-45 of pregnancy. […] Mares which received melatonin treatment at estrus also received daily melatonin treatment from day +35 to day +45 of pregnancy.

mares [6] = assay: Bolus melatonin at estrus: conception, plasma progesterone and conceptus diameter (Example 1B); type: in vivo; settings: 100 μg at estrus
Description: B. Effect on conception of bolus administration of melatonin during estrus. […] Pregnancy was monitored by ultrasonography after day 10 post-ovulation. Blood samples were collected daily from the day of treatment to day 16 post-ovulation, when conceptuses were removed. Conceptus diameter was measured daily beginning day 10 post-ovulation with ultrasound.

mares [7] = assay: Melatonin at mid-diestrus: plasma progesterone (Example 4); type: in vivo; settings: 100 μg on day 8 post-ovulation
Description: Treatments were given at 10:59:45. Daily blood sampling was performed from estrus preceding treatment to 7 days after the next subsequent ovulation. Blood samples were collected every 30 minutes for 10 hours each day of sampling.

[8] = system: corpora lutea segments from cycling mares; assay: In vitro progesterone production by corpus luteum segments (Example 8); type: cell-based; settings: 1, 10 or 100 nM melatonin; presence or absence of 100 ng hCG
Description: Corpus luteum tissue was collected surgically and was dissected into segments approximately 2×2 mm^2. Segments were incubated in the following manner: [table] At completion of culture, segments were frozen until assayed for DNA content. All media progesterone concentrations were subsequently adjusted for DNA content of the appropriate segment.

marmoset corpus luteum = settings: in vivo perfusion, marmosets; cited from earlier work
ewes [9] = settings: orally administered to ewes; cited from earlier work
[10] = 100 μg i.v. at estrus, vs control

C[C@]12CC[C@H]3[C@@H](CCC4=CC(=O)CC[C@@]43C)[C@@H]1CC[C@@H]2O [Testosterone, testosterone]
estradiol production by conceptuses in vitro ([1]; testosterone supplied to the culture): significantly increased

COc1ccc2[nH]cc(CCNC(C)=O)c2c1 [melatonin, N-acetyl-5-methoxytryptamine]
plasma progesterone concentrations (hysterectomized mares; 100 μg at estrus, morning or afternoon, p<0.03 vs control): higher | plasma progesterone, melatonin-treated vs saline-treated mares (hysterectomized mares; at approximate time of luteal regression (day 14 to 16)): no longer detectable differences | progesterone levels (ewes [2]): higher | progesterone concentrations (sheep): increased | pattern of E2 over the cycle (pony mares; 100 μg i.v. at estrus, control pattern cubic, increases at OV1 and OV2): quadratic, with increases noted only at OV2 | plasma P4 levels vs control (pony mares; 100 μg i.v. at estrus, p<0.007): higher | duration of subsequent estrous cycle (OV1 to OV2) (pony mares; [10]): did not differ between groups | interval from treatment to OV1 (pony mares; [10]): did not differ between groups | plasma LH levels (pony mares; [10]): not different between groups | plasma E2 secretion following administration (pony mares; 100 μg melatonin i.v. at estrus, 8 h sampling, p<0.001): declined | production of progesterone [3]: enhanced | plasma progesterone (P4) concentrations (cows): no effect | plasma LH concentrations (cyclic pony mares [4]; 8-hour proestrus sampling, vs control): not different | plasma melatonin concentrations vs control (cyclic pony mares [4]; by 3 hours post-treatment): not different | plasma estradiol concentrations over 8-hour sampling at proestrus (cyclic pony mares [4]; no change in controls): decreased following treatment | mean plasma progesterone (P4) concentrations (cyclic pony mares [4]; sampled at diestrus, p=0.001 vs control): significantly higher | mean plasma estradiol concentrations (cyclic pony mares [4]; sampled at estrus, p=0.006 vs control): lower | mean plasma estradiol concentrations (cyclic pony mares [4]; sampled at proestrus or diestrus, vs control): not different | mean plasma progesterone (P4) concentrations (cyclic pony mares [4]; sampled at proestrus or estrus, vs control): not different | plasma melatonin concentrations after administration (cyclic pony mares [4]; vs control, p=0.0001, RIA): higher | corpus luteum morphology (corpus luteum): greater percent of cells with pleomorphic nuclei | plasma estradiol concentrations at time of treatment (cyclic pony mares [5]; 100 μg at estrus): acute decline | estradiol concentrations during subsequent estrous cycle (cyclic pony mares [5]; 100 μg at proestrus or estrus, p=0.001 vs control): different | plasma progesterone response, ovulation through next ovulation (cyclic pony mares [5]; 100 μg at proestrus or estrus, p=0.007 vs control): higher | plasma LH concentrations (cyclic pony mares [5]; 100 μg at proestrus or estrus, vs controls): did not differ | treatment at proestrus compared with treatment at estrus (cyclic pony mares [5]; 100 μg melatonin): not different | plasma progesterone, standardized analysis (cyclic pony mares [5]; ovulation to day 7 and backwards from next ovulation, p=0.01 vs control): higher | progesterone production by accessory corpora lutea (accessory corpora lutea): enhanced progesterone production | plasma progesterone concentrations (mares [6]; bred mares, to day 16 post-ovulation, p=0.026 vs control): increased | conceptus diameter (mares [6]; day 13 to 15 post-ovulation, vs control): larger | early embryonic growth rate (mares [6]; days 10 to 13 post-ovulation, ultrasound): did not appear to differ | plasma progesterone concentrations during 10-hour sampling period (mares [7]): did not alter | plasma progesterone concentrations throughout rest of luteal phase (mares [7]): Nor were plasma progesterone concentrations different | plasma progesterone concentrations following next subsequent ovulation (mares [7]; until day 7 post-ovulation, p=0.034): higher | media progesterone concentrations, adjusted for DNA content [8]: no effect | progesterone production by corpus luteum (marmoset corpus luteum): stimulated | plasma progesterone concentrations (ewes [9]): increased | estradiol concentrations in culture media, adjusted for DNA content ([1]; conceptuses from mares treated at estrus, no supplemental testosterone, 24 hours culture): did not differ | estradiol production in vitro, adjusted for DNA content ([1]; conceptuses from mares treated at estrus, with testosterone, p=0.01 vs all other groups): greater
